The values below come from patent US8435947B2, “Endothelial nitric oxide synthase antagonists and uses thereof for inhibiting oxygen toxicity” (Medical College of Georgia Research Institute, Inc., priority 2010, dated 2013).

Experiment [1] addresses T1, eNOS-β-actin association (Sus scrofa, UniProt Q6QAQ1).
T1 construct: endogenous in cells; host or cells: porcine pulmonary artery endothelial cells (PAEC)
Put plainly: eNOS-β-actin co-immunoprecipitation in pulmonary artery endothelial cells. In kind it is cell-based, pigs. The settings on record: peptide 20 μm, 3 h. Here is the method: Transfection of Endothelial Cells with ABS Peptides Pulmonary artery endothelial cells were incubated with ABS peptides at 20 μm final concentration in MEM medium. […] Cells were then incubated for another 2 h before being used for co-immunoprecipitation and eNOS activity assays.
Determination of eNOS-β-Actin Association, NO Production, and Superoxide Formation in Endothelial Cells eNOS-β-Actin association was evaluated using co-immunoprecipitation.
This TAT tag is a novel method used to facilitate delivery of biologically active proteins or peptides into cells and tissues through the fusion of a protein transduction domain to the protein or peptide of interest (Gustafsson, A. B., et al. (2002) Circulation 106, 735-39). To confirm the efficiency of P326TAT and control peptide TAT to enter endothelial cells, FITC-labeled P326TAT and FITC-labeled control peptide TAT were used. […] Endothelial cells were incubated with P326TAT and control peptide TAT for 3 h, and then eNOS-β-actin association was evaluated by co-immunoprecipitation using anti-eNOS antibody.

Experiment [2] concerns pulmonary artery endothelial cells. Put plainly: NO production in endothelial cells (NOx, SIEVERS). The settings on record: peptide 20 μm 3 h, ionomycin 2 μM. In kind it is cell-based, pigs. Here is the method:
After wild-type and eNOS mutant transfection, ionomycin (2 μm) was added to the cells. After 30 min of incubation, culture medium was collected and ethanol-precipitated to remove proteins. 50 μl of the reaction mix were loaded to the SIEVERS machine for NOx measurement according to standard manufacturer's instructions (Church, J. E., and Fulton, D. (2006) J. Biol. Chem. 281, 1477-88). In some experiments, N^G-nitro-1-arginine methyl ester (L-NAME), a specific eNOS inhibitor, was used to inhibit NO production. […] For superoxide assay, after incubation with ABS peptides, the spin trap CMH was added to the cells. Superoxide from cells was trapped for 1 h, and then cells were scraped and subjected to EPR spectroscopy as previously described (Sud, N., et al. (2008) Am. J. Physiol. Cell Physiol. 294, C1407-18). Protein contents in the cell lysates were determined by Lowry's method.
To measure NO production, endothelial cells were incubated with ABS peptides for 3 h. Then ionomycin (2 μM) was added to the cells. After an additional 30 min, culture medium was collected and ethanol-precipitated to remove proteins. 50 μl of the reaction mix were loaded to the SIEVERS machine for NOx measurement as described above. For superoxide assay, after incubation with ABS peptides, the spin trap CMH was added to the cells. […]

Experiment [3] shares this test system. Put plainly: superoxide formation in endothelial cells (CMH spin trap, EPR). In kind it is cell-based, pigs. The following applies: endothelial cells, peptide 20 μm, versus control peptide TAT. Here is the method:
To measure NO production, endothelial cells were incubated with ABS peptides for 3 h. Then ionomycin (2 μM) was added to the cells. After an additional 30 min, culture medium was collected and ethanol-precipitated to remove proteins. 50 μl of the reaction mix were loaded to the SIEVERS machine for NOx measurement as described above. For superoxide assay, after incubation with ABS peptides, the spin trap CMH was added to the cells. Superoxide from cells was trapped for 1 h, and then cells were scraped and subjected to EPR spectroscopy.

In another experiment the test system is eNOS-Hsp90 interaction. Put plainly: eNOS-Hsp90 co-immunoprecipitation in endothelial cells. The experiment is classed as cell-based, pigs. The following applies: versus control peptide TAT-transfected cells. Here is the method: To rule out the possibility that the effect of P326TAT on eNOS activity in endothelial cells is caused by its effect on eNOS-Hsp90 interaction, eNOS-Hsp90 association was measured by co-immunoprecipitation using eNOS antibody.

The subject of experiment [4] is pulmonary artery endothelial cells. Put plainly: endothelial monolayer wound repair. The experiment is classed as cell-based, pigs. The following applies: P326TAT 20 μm. Here is the method:
Pulmonary artery endothelial cells were incubated with ABS peptides for 3 h. Then endothelial monolayer wound repair in the absence and presence of PEG-SOD (100 units/ml) and NOC-18 (10 μm) was measured as previously reported (Su, Y., et al. (2006) FASEB J. 20, 1443-51). Endothelial monolayer wound repair distance was expressed as the width of the wound before treatment subtracted by that after treatment.

The target of experiment [5] is T1, eNOS-β-actin association. Put plainly: eNOS-β-actin co-immunoprecipitation in PAEC under normoxia or hyperoxia. The experiment is classed as cell-based, pigs. Here is the method:
(§1) Third- to sixth-passage cells in monolayer culture were maintained in RPMI 1640 medium containing 4% fetal bovine serum and antibiotics (10 units/ml penicillin, 100 μg/ml streptomycin, 20 μg/ml gentamicin, and 2 μg/ml Fungizone) and were used 2 or 3 days after confluence.
(§2) To reduce β-actin availability to eNOS, the β-actin mRNA was silenced using its siRNA as previously reported by us (Kondrikov, D., et al. (2006) Am. J. Physiol. Lung Cell Mol. Physiol. 290, L41-L50).

In the next experiment the test system is eNOS. Put plainly: eNOS catalytic activity (L-citrulline formation) in hyperoxic PAEC. The experiment is classed as cell-based, pigs. The following applies: 95% oxygen 24 h. Here is the method: as §1
(§3) The homogenates were centrifuged at 100,000 g for 60 min at 4° C., and the total membrane pellet was resuspended in buffer B (bufferAplus 2.5 mM CaCl2). The resulting suspension was used for determination of eNOS activity by monitoring the formation of L-[^3H]citrulline from L-[^3H]arginine (Su, Y., et al. (2003) Am. J. Physiol. Cell Physiol. 284, C1542-C1549). To determine NO production, thapsigargin (100 nM) was added to the medium of endothelial cells following normoxic or hyperoxic exposure. After 60 min of incubation, culture medium was collected and ethanol-precipitated to remove proteins. 50 μl of the reaction mix were loaded to the SIEVERS machine for NOx (NO2 and NO3) measurement according to standard manufacturer's instruction as previously described (Church, J E., et al. (2006) J. Biol. Chem. 281, 1477-1488). Protein contents in the cell lysates were determined by Lowry's method.
as §2

For experiment [6], the system named is PAEC. Put plainly: NO production in hyperoxic PAEC. In kind it is cell-based, pigs. The following applies: 95% oxygen 24 h. Here is the method:
as §1, §3, §2

The subject of experiment [7] is PAEC. Put plainly: peroxynitrite formation in hyperoxic PAEC (APF fluorescence). The experiment is classed as cell-based, pigs. The settings on record: 95% oxygen 24 h. Here is the method:
as §1, §2

Experiment [8] has as its system PAEC. The following applies: peptide 20 μM, 95% oxygen 24 h. Here is the method:
as §1

As for RKKRRQRRRALGLRWYAL [P326TAT], the “amount of β-actin co-immunoprecipitated with eNOS” value on eNOS-β-actin association [1] and at eNOS-β-actin association [5] (peptide 20 μM) was “significantly decreased the amount of β-actin co-immunoprecipitated with eNOS” throughout. Further, the NO production entry in [2] is recorded as “significantly decreased NO production”. The superoxide formation entry in experiment [3] was “much higher in P326TAT-transfected endothelial cells than control peptide TAT-transfected endothelial cells”. In the experiment on eNOS-Hsp90 interaction, the “eNOS-Hsp90 interaction (Hsp90 co-precipitated with eNOS)” value is listed as “did not affect eNOS-Hsp90 interaction”. Moreover, the “endothelial monolayer wound repair” value in experiment [4] is listed as “exhibited lower capacity of wound repair”. Besides, the “hyperoxia-induced increase in β-actin co-immunoprecipitated with eNOS” value at eNOS-β-actin association [5] (95% oxygen 24 h) is given as “prevented hyperoxia-induced increase in eNOS-β-actin co-immunoprecipitation”. Besides, the “hyperoxia-induced increase in eNOS activity” value in the experiment with eNOS is “hyperoxic exposure did not induce an increase in eNOS activity”. For the same sequence, in the experiment with PAEC [6], the “hyperoxia-induced increase in NO formation” value is “prevented hyperoxiainduced increases in NO and peroxynitrite formation”. Moreover, the “hyperoxia-induced increase in peroxynitrite formation” value with PAEC [7] was “prevented hyperoxiainduced increases in NO and peroxynitrite formation”. Besides, the “tyrosine nitration of proteins at 250, 100, 75, and 60 kDa, hyperoxia versus normoxia” value in the experiment with PAEC [8] was “comparable between normoxia and hyperoxia”.
